# According to ChEMBL document CHEMBL1139396, “Novel N9-arenethenyl purines as potent dual Src/Abl tyrosine kinase inhibitors” (Bioorg Med Chem Lett, 2008):
# Biological target: RAF proto-oncogene serine/threonine-protein kinase (Homo sapiens, UniProt P04049)
# Test: Inhibition of c-Raf
# Conditions: not given
# Sequence of RAF proto-oncogene serine/threonine-protein kinase (P04049 whole entry): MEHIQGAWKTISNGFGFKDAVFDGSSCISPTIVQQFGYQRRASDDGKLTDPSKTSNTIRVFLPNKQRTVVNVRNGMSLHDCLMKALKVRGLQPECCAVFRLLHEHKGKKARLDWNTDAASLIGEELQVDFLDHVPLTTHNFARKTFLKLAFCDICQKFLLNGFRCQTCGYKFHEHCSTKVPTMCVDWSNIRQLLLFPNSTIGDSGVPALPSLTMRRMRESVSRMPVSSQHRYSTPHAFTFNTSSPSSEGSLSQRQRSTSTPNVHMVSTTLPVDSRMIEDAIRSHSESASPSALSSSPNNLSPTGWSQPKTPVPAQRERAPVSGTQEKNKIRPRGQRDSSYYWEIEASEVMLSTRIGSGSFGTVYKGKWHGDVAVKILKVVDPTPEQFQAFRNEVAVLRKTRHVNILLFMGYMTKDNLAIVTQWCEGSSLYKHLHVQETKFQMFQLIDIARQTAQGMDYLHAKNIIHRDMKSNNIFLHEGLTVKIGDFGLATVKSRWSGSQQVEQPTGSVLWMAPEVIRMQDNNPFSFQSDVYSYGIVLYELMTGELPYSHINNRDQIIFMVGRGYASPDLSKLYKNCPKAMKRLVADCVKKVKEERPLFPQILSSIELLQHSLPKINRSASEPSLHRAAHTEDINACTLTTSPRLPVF
row,SMILES,IC50 [nM]
1,Cc1cccc(C)c1/C=C/n1cnc2c(Nc3ccc(P(C)(C)=O)cc3)ncnc21,21

# Biological target: T1, Ephrin type-B receptor 4 (Homo sapiens, UniProt P54760)
# T1 sequence (P54760 whole entry): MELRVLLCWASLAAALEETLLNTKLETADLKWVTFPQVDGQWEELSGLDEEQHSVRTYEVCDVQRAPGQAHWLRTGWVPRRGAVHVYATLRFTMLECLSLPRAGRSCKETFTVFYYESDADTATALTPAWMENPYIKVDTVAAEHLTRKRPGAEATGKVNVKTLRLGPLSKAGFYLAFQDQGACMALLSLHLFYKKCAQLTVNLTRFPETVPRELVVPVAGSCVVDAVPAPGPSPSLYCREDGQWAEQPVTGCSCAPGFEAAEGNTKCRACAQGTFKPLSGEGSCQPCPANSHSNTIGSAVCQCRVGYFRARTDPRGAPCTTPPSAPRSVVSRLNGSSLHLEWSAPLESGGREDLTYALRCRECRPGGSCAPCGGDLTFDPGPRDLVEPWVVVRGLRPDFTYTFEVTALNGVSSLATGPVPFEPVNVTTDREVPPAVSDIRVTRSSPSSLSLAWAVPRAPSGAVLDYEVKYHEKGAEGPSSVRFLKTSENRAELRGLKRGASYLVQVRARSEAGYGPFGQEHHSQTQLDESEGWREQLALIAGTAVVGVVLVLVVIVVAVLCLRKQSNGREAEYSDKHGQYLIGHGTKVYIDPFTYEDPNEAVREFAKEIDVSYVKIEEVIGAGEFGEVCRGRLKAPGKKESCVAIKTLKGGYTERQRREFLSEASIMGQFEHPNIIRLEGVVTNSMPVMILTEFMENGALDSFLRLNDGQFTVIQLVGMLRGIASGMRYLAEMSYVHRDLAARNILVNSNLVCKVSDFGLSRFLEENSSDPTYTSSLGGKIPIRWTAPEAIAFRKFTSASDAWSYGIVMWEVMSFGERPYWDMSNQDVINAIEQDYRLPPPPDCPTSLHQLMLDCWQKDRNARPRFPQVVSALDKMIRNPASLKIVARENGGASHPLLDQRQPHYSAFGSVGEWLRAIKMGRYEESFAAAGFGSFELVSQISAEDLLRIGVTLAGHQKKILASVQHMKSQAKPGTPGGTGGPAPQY
# Test: Inhibition of EphB4
# Conditions: not given
row,SMILES,IC50 [nM]
1,Cc1cccc(C)c1/C=C/n1cnc2c(Nc3ccc(P(C)(C)=O)cc3)ncnc21,30

# Test system: not listed separately
# Test: Cmax in rat at 5 mg/kg, po
# Assay type: ADME, organism-based
# Parameters: dose 5 mg/kg, route oral
# Conditions: in vivo
row,SMILES,Cmax [ng/mL]
1,Cc1cccc(C)c1/C=C/n1cnc2c(Nc3ccc(P(C)(C)=O)cc3)ncnc21,1280
2,Cc1ccc2[nH]ncc2c1/C=C/n1cnc2c(Nc3ccc(P(C)(C)=O)cc3)ncnc21,22
3,Cc1cccc(C)c1/C=C/n1cnc2c(Nc3ccc(P(C)(C)=O)cc3)nc(C(C)C)nc21,478
4,Cc1cccc(Cl)c1/C=C/n1cnc2c(Nc3ccc(P(C)(C)=O)cc3)ncnc21,1680

# Biological target: not listed separately
# Test: Inhibition of Aurora kinase
# Conditions: not given
row,SMILES,IC50 [nM]
1,Cc1cccc(C)c1/C=C/n1cnc2c(Nc3ccc(P(C)(C)=O)cc3)ncnc21,> 1000

# Test system: not listed separately
# Test: Cytotoxicity against mouse BA/F3 cells transfected with wild-type Bcr-Abl
# Conditions: BaF3
row,SMILES,IC50 [nM]
1,COCCOc1nc(Nc2ccc(P(C)(C)=O)cc2)c2ncn(/C=C/c3c(C)cccc3C)c2n1,51.7
2,Cc1cccc(C)c1/C=C/n1cnc2c(Nc3ccc(P(C)(C)=O)cc3)nc(N3CCOCC3)nc21,20.8
3,Cc1cccc(C)c1/C=C/n1cnc2c(Nc3ccc(P(C)(C)=O)cc3)ncnc21,168
4,Cc1ccc2[nH]ncc2c1/C=C/n1cnc2c(Nc3ccc(P(C)(C)=O)cc3)ncnc21,37.3
5,Cc1cccc(C)c1/C=C/n1cnc2c(Nc3ccc(P(C)(C)=O)cc3)nc(C(C)C)nc21,27.1
6,Cc1cccc(Cl)c1/C=C/n1cnc2c(Nc3ccc(P(C)(C)=O)cc3)ncnc21,200

# Biological target: Ephrin type-A receptor 7 (Homo sapiens) (UniProt Q15375)
# Test: Inhibition of EphA7
# Conditions: not given
row,SMILES,IC50 [nM]
1,Cc1cccc(C)c1/C=C/n1cnc2c(Nc3ccc(P(C)(C)=O)cc3)ncnc21,> 1000

# Test system: not listed separately
# Test: Volume of distribution at steady state in rat at 5 mg/kg, iv
# Assay type: ADME, organism-based
# Parameters: dose 5 mg/kg, route intravenous
# Conditions: in vivo, read-out: Vdss
row,SMILES,Vd [L/kg]
1,Cc1cccc(C)c1/C=C/n1cnc2c(Nc3ccc(P(C)(C)=O)cc3)ncnc21,0.98
2,Cc1ccc2[nH]ncc2c1/C=C/n1cnc2c(Nc3ccc(P(C)(C)=O)cc3)ncnc21,1.9
3,Cc1cccc(C)c1/C=C/n1cnc2c(Nc3ccc(P(C)(C)=O)cc3)nc(C(C)C)nc21,5.4
4,Cc1cccc(Cl)c1/C=C/n1cnc2c(Nc3ccc(P(C)(C)=O)cc3)ncnc21,2.74

# Biological target: Platelet-derived growth factor receptor alpha (Homo sapiens, UniProt P16234)
# Test: Inhibition of PDGFRalpha
# Conditions: not given
row,SMILES,IC50 [nM]
1,Cc1cccc(C)c1/C=C/n1cnc2c(Nc3ccc(P(C)(C)=O)cc3)ncnc21,221

# Biological target: Insulin receptor (Homo sapiens, UniProt P06213)
# Test: Inhibition of InsR
# Conditions: not given
# Sequence of Insulin receptor (P06213 28-758 limits assumed): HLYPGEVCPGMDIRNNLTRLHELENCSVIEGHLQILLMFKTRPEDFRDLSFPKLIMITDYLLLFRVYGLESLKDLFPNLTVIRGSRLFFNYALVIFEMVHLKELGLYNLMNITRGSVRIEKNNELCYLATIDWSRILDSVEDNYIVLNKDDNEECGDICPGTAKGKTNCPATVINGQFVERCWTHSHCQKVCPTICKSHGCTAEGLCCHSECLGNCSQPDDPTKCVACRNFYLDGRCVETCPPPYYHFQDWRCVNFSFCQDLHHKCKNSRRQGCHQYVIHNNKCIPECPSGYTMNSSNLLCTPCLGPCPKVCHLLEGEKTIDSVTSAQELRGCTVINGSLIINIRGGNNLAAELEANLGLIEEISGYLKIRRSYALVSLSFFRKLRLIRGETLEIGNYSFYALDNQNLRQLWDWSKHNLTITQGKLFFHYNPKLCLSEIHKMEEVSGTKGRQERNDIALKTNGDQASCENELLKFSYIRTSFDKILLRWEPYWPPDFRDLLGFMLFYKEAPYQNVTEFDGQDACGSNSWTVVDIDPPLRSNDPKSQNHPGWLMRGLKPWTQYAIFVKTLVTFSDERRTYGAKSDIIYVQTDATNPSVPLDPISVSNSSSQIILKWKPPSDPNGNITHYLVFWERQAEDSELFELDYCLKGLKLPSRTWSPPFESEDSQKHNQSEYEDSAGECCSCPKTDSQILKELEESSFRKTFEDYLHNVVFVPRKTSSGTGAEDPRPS
# Sequence of Insulin receptor (P06213 763-1382 limits assumed): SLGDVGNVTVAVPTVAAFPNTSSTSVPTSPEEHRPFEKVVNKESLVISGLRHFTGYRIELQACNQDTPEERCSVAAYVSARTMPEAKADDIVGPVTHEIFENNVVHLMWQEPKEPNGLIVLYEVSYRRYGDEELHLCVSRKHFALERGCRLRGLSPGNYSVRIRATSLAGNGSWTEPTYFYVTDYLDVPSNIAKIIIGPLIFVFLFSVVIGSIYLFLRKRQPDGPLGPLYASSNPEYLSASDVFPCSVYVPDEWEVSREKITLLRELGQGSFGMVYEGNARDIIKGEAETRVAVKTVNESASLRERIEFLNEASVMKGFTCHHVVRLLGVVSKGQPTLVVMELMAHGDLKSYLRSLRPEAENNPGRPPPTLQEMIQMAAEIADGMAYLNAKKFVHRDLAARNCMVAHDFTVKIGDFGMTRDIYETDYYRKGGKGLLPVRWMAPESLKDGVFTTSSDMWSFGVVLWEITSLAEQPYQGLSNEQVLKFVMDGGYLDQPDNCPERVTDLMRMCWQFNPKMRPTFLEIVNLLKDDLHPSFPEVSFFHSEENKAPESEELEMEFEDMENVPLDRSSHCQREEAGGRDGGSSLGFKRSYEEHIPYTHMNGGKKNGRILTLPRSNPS
row,SMILES,IC50 [nM]
1,Cc1cccc(C)c1/C=C/n1cnc2c(Nc3ccc(P(C)(C)=O)cc3)ncnc21,> 1000

# Test system: not listed separately
# Test: Half life in rat at 5 mg/kg, iv
# Assay type: ADME, organism-based
# Parameters: dose 5 mg/kg, route intravenous
# Conditions: in vivo
row,SMILES,half-life [min]
1,Cc1cccc(C)c1/C=C/n1cnc2c(Nc3ccc(P(C)(C)=O)cc3)ncnc21,236
2,Cc1ccc2[nH]ncc2c1/C=C/n1cnc2c(Nc3ccc(P(C)(C)=O)cc3)ncnc21,72
3,Cc1cccc(C)c1/C=C/n1cnc2c(Nc3ccc(P(C)(C)=O)cc3)nc(C(C)C)nc21,450
4,Cc1cccc(Cl)c1/C=C/n1cnc2c(Nc3ccc(P(C)(C)=O)cc3)ncnc21,164

# Test system: K562
# Test: Cytotoxicity against human K562 cells transfected with wild-type Bcr-Abl
# Conditions: not given
row,SMILES,IC50 [nM]
1,COCCOc1nc(Nc2ccc(P(C)(C)=O)cc2)c2ncn(/C=C/c3c(C)cccc3C)c2n1,26.7
2,Cc1cccc(C)c1/C=C/n1cnc2c(Nc3ccc(P(C)(C)=O)cc3)ncnc21,109
3,Cc1ccc2[nH]ncc2c1/C=C/n1cnc2c(Nc3ccc(P(C)(C)=O)cc3)ncnc21,10.5
4,Cc1cccc(C)c1/C=C/n1cnc2c(Nc3ccc(P(C)(C)=O)cc3)nc(C(C)C)nc21,22.7
5,Cc1cccc(Cl)c1/C=C/n1cnc2c(Nc3ccc(P(C)(C)=O)cc3)ncnc21,109

# Biological target: Cyclin-dependent kinase 2 (Homo sapiens, UniProt P24941)
# Test: Inhibition of CDK2/CyclinA
# Conditions: not given
row,SMILES,IC50 [nM]
1,Cc1cccc(C)c1/C=C/n1cnc2c(Nc3ccc(P(C)(C)=O)cc3)ncnc21,> 1000

# Test system: not listed separately
# Test: Inhibition of Abl […] mutant
# Conditions: not given
row,SMILES,IC50 [nM]
1,Cc1cccc(C)c1/C=C/n1cnc2c(Nc3ccc(P(C)(C)=O)cc3)ncnc21,> 1000

# Biological target: Tyrosine-protein kinase ABL1 (Homo sapiens, UniProt P00519)
# Test: not given
# Conditions: not given
# Sequence of Tyrosine-protein kinase ABL1 (P00519 whole entry): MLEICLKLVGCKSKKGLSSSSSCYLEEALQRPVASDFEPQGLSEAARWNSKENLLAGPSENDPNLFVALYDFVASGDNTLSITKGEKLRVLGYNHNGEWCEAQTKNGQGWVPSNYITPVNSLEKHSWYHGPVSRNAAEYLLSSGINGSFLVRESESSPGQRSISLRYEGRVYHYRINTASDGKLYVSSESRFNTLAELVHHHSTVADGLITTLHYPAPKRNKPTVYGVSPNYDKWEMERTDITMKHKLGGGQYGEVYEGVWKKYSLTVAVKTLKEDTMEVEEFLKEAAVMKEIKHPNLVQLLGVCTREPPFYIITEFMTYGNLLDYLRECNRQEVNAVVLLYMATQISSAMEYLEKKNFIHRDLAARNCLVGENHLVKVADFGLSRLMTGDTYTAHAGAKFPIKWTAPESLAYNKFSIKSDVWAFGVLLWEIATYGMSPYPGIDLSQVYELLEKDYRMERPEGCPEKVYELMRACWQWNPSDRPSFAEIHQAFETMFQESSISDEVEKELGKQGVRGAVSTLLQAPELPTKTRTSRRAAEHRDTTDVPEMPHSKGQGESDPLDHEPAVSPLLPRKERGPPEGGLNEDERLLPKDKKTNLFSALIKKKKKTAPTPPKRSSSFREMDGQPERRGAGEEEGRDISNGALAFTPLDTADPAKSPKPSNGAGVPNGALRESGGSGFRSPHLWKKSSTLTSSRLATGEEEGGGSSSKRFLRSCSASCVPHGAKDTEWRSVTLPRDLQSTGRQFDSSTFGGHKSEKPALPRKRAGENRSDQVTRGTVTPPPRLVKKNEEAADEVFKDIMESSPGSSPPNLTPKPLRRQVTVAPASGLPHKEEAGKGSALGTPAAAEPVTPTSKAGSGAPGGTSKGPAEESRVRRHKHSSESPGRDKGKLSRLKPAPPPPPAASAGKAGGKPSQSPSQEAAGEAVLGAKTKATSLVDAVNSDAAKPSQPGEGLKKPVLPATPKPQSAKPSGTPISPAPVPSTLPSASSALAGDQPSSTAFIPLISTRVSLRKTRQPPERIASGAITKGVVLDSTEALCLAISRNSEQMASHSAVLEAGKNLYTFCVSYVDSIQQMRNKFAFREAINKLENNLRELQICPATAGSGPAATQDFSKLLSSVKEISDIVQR
row,SMILES,IC50 [nM]
1,COCCOc1nc(Nc2ccc(P(C)(C)=O)cc2)c2ncn(/C=C/c3c(C)cccc3C)c2n1,1.57
2,Cc1cccc(C)c1/C=C/n1cnc2c(Nc3ccc(P(C)(C)=O)cc3)nc(N3CCOCC3)nc21,3.02
3,Cc1cccc(C)c1/C=C/n1cnc2c(Nc3ccc(P(C)(C)=O)cc3)ncnc21,3.58
4,Cc1ccc2[nH]ncc2c1/C=C/n1cnc2c(Nc3ccc(P(C)(C)=O)cc3)ncnc21,< 0.46

# Biological target: Vascular endothelial growth factor receptor 3 (Homo sapiens, UniProt P35916)
# Test: Inhibition of Flt4
# Conditions: not given
row,SMILES,IC50 [nM]
1,Cc1cccc(C)c1/C=C/n1cnc2c(Nc3ccc(P(C)(C)=O)cc3)ncnc21,151

# Biological target: Mast/stem cell growth factor receptor Kit (Homo sapiens, UniProt P10721)
# Test: Inhibition of Kit
# Conditions: not given
row,SMILES,IC50 [nM]
1,Cc1cccc(C)c1/C=C/n1cnc2c(Nc3ccc(P(C)(C)=O)cc3)ncnc21,414

# Biological target: Proto-oncogene tyrosine-protein kinase Src (Homo sapiens, UniProt P12931)
# Test: Inhibition of human Src kinase by TR-FRET assay
# Conditions: not given
# Sequence of Proto-oncogene tyrosine-protein kinase Src (P12931 2-536 limits assumed): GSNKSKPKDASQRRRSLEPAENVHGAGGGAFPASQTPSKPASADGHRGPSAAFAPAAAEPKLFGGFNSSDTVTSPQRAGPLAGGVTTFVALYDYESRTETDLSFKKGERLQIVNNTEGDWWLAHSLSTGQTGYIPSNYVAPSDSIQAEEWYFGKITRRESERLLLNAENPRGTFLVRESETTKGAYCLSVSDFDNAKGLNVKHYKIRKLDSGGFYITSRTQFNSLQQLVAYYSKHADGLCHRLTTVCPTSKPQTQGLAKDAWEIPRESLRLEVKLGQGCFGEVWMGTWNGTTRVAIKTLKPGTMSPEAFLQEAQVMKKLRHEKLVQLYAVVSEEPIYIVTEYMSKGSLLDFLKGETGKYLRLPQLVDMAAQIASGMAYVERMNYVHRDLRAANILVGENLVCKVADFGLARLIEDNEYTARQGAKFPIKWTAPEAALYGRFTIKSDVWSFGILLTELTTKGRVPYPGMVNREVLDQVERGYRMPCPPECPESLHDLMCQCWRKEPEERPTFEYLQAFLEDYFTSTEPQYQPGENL
row,SMILES,IC50 [nM]
1,COCCOc1nc(Nc2ccc(P(C)(C)=O)cc2)c2ncn(/C=C/c3c(C)cccc3C)c2n1,< 0.46
2,Cc1cccc(C)c1/C=C/n1cnc2c(Nc3ccc(P(C)(C)=O)cc3)nc(N3CCOCC3)nc21,< 0.23
3,Cc1cccc(C)c1/C=C/n1cnc2c(Nc3ccc(P(C)(C)=O)cc3)ncnc21,8.31
4,Cc1ccc2[nH]ncc2c1/C=C/n1cnc2c(Nc3ccc(P(C)(C)=O)cc3)ncnc21,< 0.46

# Biological target: Macrophage colony-stimulating factor 1 receptor (Homo sapiens, UniProt P07333)
# Test: not given
# Conditions: not given
row,SMILES,IC50 [nM]
1,Cc1cccc(C)c1/C=C/n1cnc2c(Nc3ccc(P(C)(C)=O)cc3)ncnc21,3

# Biological target: T2, Ephrin type-B receptor 1 (Homo sapiens, UniProt P54762)
# T2 sequence (P54762 whole entry): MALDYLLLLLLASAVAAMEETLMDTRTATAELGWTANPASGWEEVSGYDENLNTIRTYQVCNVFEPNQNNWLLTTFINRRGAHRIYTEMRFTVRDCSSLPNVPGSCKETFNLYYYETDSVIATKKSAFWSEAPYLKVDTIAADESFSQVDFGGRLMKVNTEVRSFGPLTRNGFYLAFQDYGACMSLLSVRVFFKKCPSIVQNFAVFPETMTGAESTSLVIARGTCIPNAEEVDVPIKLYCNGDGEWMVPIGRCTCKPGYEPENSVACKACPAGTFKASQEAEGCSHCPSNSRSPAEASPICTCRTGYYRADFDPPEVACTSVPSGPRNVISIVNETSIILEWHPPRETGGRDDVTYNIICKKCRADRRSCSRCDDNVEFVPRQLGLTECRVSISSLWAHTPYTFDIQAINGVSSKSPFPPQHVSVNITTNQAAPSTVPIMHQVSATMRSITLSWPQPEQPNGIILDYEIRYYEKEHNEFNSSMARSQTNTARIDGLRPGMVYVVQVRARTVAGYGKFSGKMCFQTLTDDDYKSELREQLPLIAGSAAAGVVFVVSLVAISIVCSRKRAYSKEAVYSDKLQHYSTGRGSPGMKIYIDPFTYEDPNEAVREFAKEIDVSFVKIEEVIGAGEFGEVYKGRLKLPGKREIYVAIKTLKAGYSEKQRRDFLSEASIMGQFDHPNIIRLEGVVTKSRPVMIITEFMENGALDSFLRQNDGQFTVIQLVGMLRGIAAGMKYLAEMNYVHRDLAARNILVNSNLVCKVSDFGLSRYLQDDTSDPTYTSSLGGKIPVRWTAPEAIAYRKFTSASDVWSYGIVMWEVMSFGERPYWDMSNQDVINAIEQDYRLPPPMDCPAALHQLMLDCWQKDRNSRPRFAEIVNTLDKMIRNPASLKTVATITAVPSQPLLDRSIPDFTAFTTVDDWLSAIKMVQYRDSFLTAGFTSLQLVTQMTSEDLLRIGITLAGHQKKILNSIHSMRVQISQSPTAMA
# Test: Inhibition of EphB1
# Conditions: not given
row,SMILES,IC50 [nM]
1,Cc1cccc(C)c1/C=C/n1cnc2c(Nc3ccc(P(C)(C)=O)cc3)ncnc21,6

# Biological target: Vascular endothelial growth factor receptor 1 (Homo sapiens, UniProt P17948)
# Test: Inhibition of Flt1
# Conditions: not given
# Sequence of Vascular endothelial growth factor receptor 1 (P17948 whole entry): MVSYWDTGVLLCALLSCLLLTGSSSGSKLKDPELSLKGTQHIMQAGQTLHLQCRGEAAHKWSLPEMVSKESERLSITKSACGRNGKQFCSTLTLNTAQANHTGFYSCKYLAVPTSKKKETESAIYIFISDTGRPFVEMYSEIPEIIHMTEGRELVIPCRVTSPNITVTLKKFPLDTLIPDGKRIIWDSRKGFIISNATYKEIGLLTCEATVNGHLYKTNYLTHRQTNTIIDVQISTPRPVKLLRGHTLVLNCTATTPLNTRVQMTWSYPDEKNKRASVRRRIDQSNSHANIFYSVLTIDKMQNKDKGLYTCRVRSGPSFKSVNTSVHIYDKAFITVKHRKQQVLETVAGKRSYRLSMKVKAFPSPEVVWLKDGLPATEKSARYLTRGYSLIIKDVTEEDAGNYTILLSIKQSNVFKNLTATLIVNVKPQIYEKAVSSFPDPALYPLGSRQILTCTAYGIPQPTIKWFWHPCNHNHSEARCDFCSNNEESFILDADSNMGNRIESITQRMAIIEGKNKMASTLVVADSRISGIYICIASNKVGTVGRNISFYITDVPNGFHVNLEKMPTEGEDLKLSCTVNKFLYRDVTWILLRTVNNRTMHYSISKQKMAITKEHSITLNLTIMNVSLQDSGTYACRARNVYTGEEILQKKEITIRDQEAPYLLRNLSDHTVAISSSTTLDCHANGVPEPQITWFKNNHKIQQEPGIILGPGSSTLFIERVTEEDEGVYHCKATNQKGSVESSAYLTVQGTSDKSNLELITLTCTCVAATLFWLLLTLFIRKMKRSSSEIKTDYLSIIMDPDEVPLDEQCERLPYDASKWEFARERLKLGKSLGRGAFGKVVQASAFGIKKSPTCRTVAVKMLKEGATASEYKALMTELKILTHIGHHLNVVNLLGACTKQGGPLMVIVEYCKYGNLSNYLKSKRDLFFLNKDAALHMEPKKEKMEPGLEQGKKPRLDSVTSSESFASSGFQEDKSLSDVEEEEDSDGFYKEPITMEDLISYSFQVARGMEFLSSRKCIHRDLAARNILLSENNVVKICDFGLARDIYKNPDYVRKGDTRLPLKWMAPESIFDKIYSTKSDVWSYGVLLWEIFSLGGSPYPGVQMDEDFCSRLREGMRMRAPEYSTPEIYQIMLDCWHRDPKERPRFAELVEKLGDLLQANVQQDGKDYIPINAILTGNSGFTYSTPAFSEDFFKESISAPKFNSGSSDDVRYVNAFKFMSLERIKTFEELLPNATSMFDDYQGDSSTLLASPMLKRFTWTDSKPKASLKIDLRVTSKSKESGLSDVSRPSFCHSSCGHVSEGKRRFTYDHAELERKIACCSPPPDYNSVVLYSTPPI
row,SMILES,IC50 [nM]
1,Cc1cccc(C)c1/C=C/n1cnc2c(Nc3ccc(P(C)(C)=O)cc3)ncnc21,591

# Test system: not listed separately
# Test: Oral bioavailability in rat at 5 mg/kg
# Assay type: ADME, organism-based
# Conditions: in vivo
row,SMILES,bioavailability [%]
1,Cc1cccc(C)c1/C=C/n1cnc2c(Nc3ccc(P(C)(C)=O)cc3)ncnc21,20
2,Cc1ccc2[nH]ncc2c1/C=C/n1cnc2c(Nc3ccc(P(C)(C)=O)cc3)ncnc21,0
3,Cc1cccc(C)c1/C=C/n1cnc2c(Nc3ccc(P(C)(C)=O)cc3)nc(C(C)C)nc21,25
4,Cc1cccc(Cl)c1/C=C/n1cnc2c(Nc3ccc(P(C)(C)=O)cc3)ncnc21,17

# Test system: not listed separately
# Test: Half life in rat at 5 mg/kg, po
# Assay type: ADME, organism-based
# Parameters: dose 5 mg/kg, route oral
# Conditions: in vivo
row,SMILES,half-life [min]
1,Cc1cccc(C)c1/C=C/n1cnc2c(Nc3ccc(P(C)(C)=O)cc3)ncnc21,300
2,Cc1cccc(C)c1/C=C/n1cnc2c(Nc3ccc(P(C)(C)=O)cc3)nc(C(C)C)nc21,306
3,Cc1cccc(Cl)c1/C=C/n1cnc2c(Nc3ccc(P(C)(C)=O)cc3)ncnc21,198

# Test system: not listed separately
# Test: Cmax in rat at 5 mg/kg, iv
# Assay type: ADME, organism-based
# Parameters: dose 5 mg/kg, route intravenous
# Conditions: in vivo
row,SMILES,Cmax [ng/mL]
1,Cc1cccc(C)c1/C=C/n1cnc2c(Nc3ccc(P(C)(C)=O)cc3)ncnc21,4320
2,Cc1ccc2[nH]ncc2c1/C=C/n1cnc2c(Nc3ccc(P(C)(C)=O)cc3)ncnc21,7080
3,Cc1cccc(C)c1/C=C/n1cnc2c(Nc3ccc(P(C)(C)=O)cc3)nc(C(C)C)nc21,1220
4,Cc1cccc(Cl)c1/C=C/n1cnc2c(Nc3ccc(P(C)(C)=O)cc3)ncnc21,4590
